Measured values taken from patent US20230250096A1, “SUBSTITUTED PHENYL-1H-PYRROLO[2,3-c] PYRIDINE DERIVATIVES” (Janssen Pharmaceutica NV, priority 2021, published 2023).

Assays:
MEIS1 mRNA expression = MEIS1 mRNA expression assay (Quantigene Singleplex) in MOLM14 cells; assay type: cell-based, human; conditions: 48 hours incubation
Outline: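 MOLM14 cells, 3,750/well, exposed to increasing compound concentrations for 48 h. MEIS1 mRNA measured by QuantiGene Singleplex branched-DNA hybridization (lysis 45 min, hybridization 18–22 h, both 55 °C), normalized to RPL28. IC50 fitted to background-corrected fold change versus DMSO.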

[1] = molecular target: T1, menin/MLL (terbium chelate-labeled menin, FITC-MBM1 peptide) (Homo sapiens, UniProt O00255, T541A); test: Menin/MLL homogenous time-resolved fluorescence (HTRF) assay; assay type: binding; conditions: 30 min incubation
T1 construct: Menin (a.a 1-610-6xhis tag, 2.3 mg/mL in 20 mM Hepes)
T1 sequence (O00255 with tags, fused parts or gaps T541A): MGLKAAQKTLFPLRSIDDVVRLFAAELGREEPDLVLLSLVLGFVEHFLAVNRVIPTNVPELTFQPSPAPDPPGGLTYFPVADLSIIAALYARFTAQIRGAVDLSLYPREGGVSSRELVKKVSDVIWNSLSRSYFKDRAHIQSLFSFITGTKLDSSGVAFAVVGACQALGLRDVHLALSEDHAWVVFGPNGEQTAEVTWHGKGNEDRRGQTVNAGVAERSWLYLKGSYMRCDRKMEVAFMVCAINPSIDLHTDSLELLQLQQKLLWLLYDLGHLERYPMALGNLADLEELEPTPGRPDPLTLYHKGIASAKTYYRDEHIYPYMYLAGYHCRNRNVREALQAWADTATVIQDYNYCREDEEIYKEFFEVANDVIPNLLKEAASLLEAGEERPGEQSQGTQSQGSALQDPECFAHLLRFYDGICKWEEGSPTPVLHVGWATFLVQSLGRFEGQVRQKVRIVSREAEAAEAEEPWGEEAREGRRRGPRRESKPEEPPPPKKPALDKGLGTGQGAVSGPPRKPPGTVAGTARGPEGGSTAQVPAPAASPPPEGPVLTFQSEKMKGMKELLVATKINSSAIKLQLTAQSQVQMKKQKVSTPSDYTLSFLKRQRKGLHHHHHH
Outline: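 Terbium-labeled menin (a.a. 1-610, His-tagged; […]) pre-incubated 30 min with compound, then 75 nM FITC-MBM1 peptide added for 15 min at ambient temperature in Tris pH 7.5 buffer, 0.5% DMSO. HTRF 520/490 nm ratio read; IC50 from 11-point four-fold titrations, typically from 10 μM.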

Row | Structure (SMILES) | IC50 (MEIS1 mRNA expression; Homo sapiens, MOLM-14, 48 h) | IC50 [1] | IC50 (MEIS1 mRNA expression)
1 | Cc1cncc2c1c(C[C@@H]1CCN(CC3CCN(C(=O)C(C)C)CC3)C1)cn2-c1ccc(F)cc1C(=O)N(CCO)C(C)C [Compound 329] | 13 nM | 0.152 nM | 
2 | Cc1cncc2c1c(C[C@@H]1CN[C@H](C)C1)cn2-c1ccc(F)cc1C(=O)N(C)C(C)C [Compound 504] | > 1000 nM | 23.9 nM | 
3 | Cc1cncc2c1c(CC1(C)CCN(CC3CCOCC3)C1)cn2-c1ccc(F)cc1C(=O)N(C)C(C)C (centres unmarked) [Compound 239] | 138 nM | 0.305 nM | 
4 | Cc1cncc2c1c(C[C@H]1CCN(CC3CCCCC3)C1)cn2-c1ccc(F)cc1C(=O)N(C)C(C)C [Compound 194] | 66 nM | 0.072 nM | 
5 | CC(=O)N1CCC(CN2CC[C@@H](Cc3cn(-c4ccc(F)cc4C(=O)N(C(C)C)C(C)C)c4cncc(C)c34)C2)CC1 [Compound 258] | 11 nM | 0.021 nM | 
6 | COCC(=O)N1CC(CN2CCC(Cc3cn(-c4ccc(F)cc4C(=O)N(C)C(C)C)c4cncc(C)c34)CC2)C1 [Compound 111] | ~707 nM | 0.745 nM | 
7 | CC(=O)N1CC[C@H](CN2CCC(Cc3cn(-c4ccc(F)cc4C(=O)N(C)C(C)C)c4cncc(C)c34)C2)C1 (single isomer, unassigned) [Compound 100] | 434 nM | 0.165 nM | 
8 | CCN(C(=O)c1cc(F)ccc1-n1cc(C[C@@H]2CCN(CC3CCNC(=O)CC3)C2)c2c(C)cncc21)C(C)C (mixture of isomers) [Compound 254] | 19 nM | 0.071 nM | 
9 | CC(=O)N1CC2CCC(N3CC(Cc4cn(-c5ccc(F)cc5C(=O)N(C)C(C)C)c5cncc(C)c45)C3)C2C1 (centres unmarked) [Compound 306] | 159 nM | 0.468 nM | 
10 | Cc1cncc2c1c(C[C@@H]1CCN(CC3CCN(C(=O)C(C)(C)O)CC3)C1)cn2-c1ccc(F)cc1C(=O)N1[C@H](C)CC[C@H]1C [Compound 343] | 13 nM | 0.045 nM | 
11 | CCN(C(=O)c1cc(F)ccc1-n1cc(C[C@@H]2CCN(CC3CCN(C(C)=O)CC3)C2)c2c(C)cncc21)C(C)C [Compound 255] | 10 nM | 0.102 nM | 
12 | COC(=O)N1CCC(CN2CC(Cc3cn(-c4ccc(F)cc4C(=O)N(C)C(C)C)c4cncc(C)c34)C2)CC1 [Compound 65] | 45 nM | 0.079 nM | 
13 | CNC(=O)[C@H]1CC[C@@H](CN2CC[C@H](Cc3cn(-c4ccc(F)cc4C(=O)N(C)C(C)C)c4cncc(C)c34)C2)CC1 [Compound 236] | ~98.9 nM | 0.086 nM | 
14 | CC(=O)N1CCC(C)(CN2CC[C@@H](Cc3cn(-c4ccc(F)cc4C(=O)N(C[C@@H](C)O)C(C)C)c4cncc(C)c34)C2)CC1 [Compound 339] | 68 nM | 0.193 nM | 
15 | CC(=O)N1CC2CC1CC2N1CC[C@@H](Cc2cn(-c3ccc(F)cc3C(=O)N(C)C(C)C)c3cncc(C)c23)C1 (some centres unmarked) [Compound 223] | 279 nM | 0.239 nM | 
16 | Cc1cncc2c1c(CC1CN(CC3CCOCC3)C1)cn2-c1ccc(F)cc1C(=O)N(C)[C@H]1C[C@H](O)C1 [Compound 275] | > 1000 nM | 0.945 nM | 

Row | Structure (SMILES) | IC50 (MEIS1 mRNA expression; Homo sapiens, MOLM-14, 48 h) | IC50 [1] | IC50 (MEIS1 mRNA expression)
17 | CC(=O)N1CC2CC(CN3CC[C@@H](Cc4cn(-c5ccc(F)cc5C(=O)N(CC(C)O)C(C)C)c5cncc(C)c45)C3)CC(C2)C1 (some centres unmarked) [Compound 350] | ~1000 nM | 0.583 nM | 
18 | Cc1cncc2c1c(CC1CN(CC3CNCC(=O)C3)C1)cn2-c1ccc(F)cc1C(=O)N(C)C(C)C (centres unmarked) [Compound 196] | 438 nM | 0.19 nM | 
19 | CC(=O)N1CC2CC(CN3CC[C@@H](Cc4cn(-c5ccc(F)cc5C(=O)N5CCC[C@H]5CO)c5cncc(C)c45)C3)CC(C2)C1 (some centres unmarked) [Compound 349] | > 1000 nM | 6.68 nM | 
20 | COCCN(C)CCC[C@H](C(C)C)N1CC[C@H](Cc2cn(-c3ccc(F)cc3C(=O)N(C)C(C)C)c3cncc(C)c23)C1 (single isomer, unassigned) [Compound 2a] | 36 nM | 0.024 nM | 
21 | Cc1cncc2c1c(CC1CN(CC3CCOCC3)C1)cn2-c1ccc(F)cc1C(=O)N1C2COCC1C2 [Compound 263] | 175 nM | 0.258 nM | 
22 | CC(=O)N1CCC(C)C(N2CC[C@@H](Cc3cn(-c4ccc(F)cc4C(=O)N(C)C(C)C)c4cncc(C)c34)C2)C1 (some centres unmarked) [Compound 243] |  | 0.097 nM | 37 nM
23 | CC(=O)N1CCC(CN2CC[C@H](Cc3cn(-c4ccc(F)cc4S4(=O)=NCCC4)c4cncc(C)c34)C2)CC1 (mixture of isomers) [Compound 224] | ~3880 nM | 8.66 nM | 
24 | Cc1cncc2c1c(CC1CN(CC3CCOC3)C1)cn2-c1ccc(F)cc1C(=O)N(C)C(C)C (centres unmarked) [Compound 287] | 26 nM | 0.034 nM | 
25 | Cc1cncc2c1c(CC1CCN(CC3CCN(C(=O)CO)CC3)C1)cn2-c1ccc(F)cc1C(=O)N(C)C(C)C (single isomer, unassigned) [Compound 87] | 27 nM | 0.042 nM | 
26 | Cc1cncc2c1c(CC1CN(CC3CCN(S(C)(=O)=O)CC3)C1)cn2-c1ccc(F)cc1C(=O)N(C)C(C)C [Compound 64] | ~39 nM | 0.284 nM | 
27 | CC(=O)N1CCC(CN2CC[C@@H](Cc3cn(-c4ccc(F)cc4C(=O)N4CCCCC4C)c4cncc(C)c34)C2)CC1 (some centres unmarked) [Compound 317] | 65 nM | 0.291 nM | 
28 | CC(=O)N1CCCC(N2CC(Cc3cn(-c4ccc(F)cc4C(=O)N(C)C(C)C)c4cncc(C)c34)C2)CC1 (centres unmarked) [Compound 295] | 338 nM | 0.171 nM | 
29 | Cc1cncc2c1c(CC1CCN(CC3CCN(C(=O)CC4CS(=O)(=O)C4)CC3)C1)cn2-c1ccc(F)cc1C(=O)N(C)C(C)C (single isomer, unassigned) [Compound 106] | 104 nM | 0.039 nM | 
30 | CC(=O)N1CCC(CN2CC(Cc3cn(-c4ccc(F)cc4C(=O)N(C)C(C)C)c4cncc(C)c34)C2)C1 (centres unmarked) [Compound 94] | 309 nM | 0.079 nM | 
31 | Cc1cncc2c1c(CC1CN(CC3CCOCC3)C1)cn2-c1ccc(F)cc1C(=O)N(C)C1(CO)CCC1 [Compound 276] | ~462 nM | 0.532 nM | 
32 | Cc1cncc2c1c(CC1CCN(C[C@H]3CCC(=O)N3)CC1)cn2-c1ccc(F)cc1C(=O)N(C)C(C)C [Compound 110] | ~1070 nM | 1.8 nM | 

The next lines start with the values.

Row | IC50 (MEIS1 mRNA expression; Homo sapiens, MOLM-14, 48 h) | IC50 [1] | IC50 (MEIS1 mRNA expression) | Structure (SMILES)
33 |  | 0.546 nM | 669 nM | CN=S(=O)(c1cc(F)ccc1-n1cc(CC2CCN(CC3CCOCC3)C2)c2c(C)cncc21)C(C)C (single isomer, unassigned) [Compound 77c]
34 | 35 nM | 0.102 nM |  | Cc1cncc2c1c(C[C@@H]1CCN(CC3CCOCC3)C1)cn2-c1ccc(F)cc1C(=O)N(C[C@@H](C)O)C(C)C (single isomer, unassigned) [Compound 365a]
35 |  | 0.376 nM | > 1000 nM | Cc1cncc2c1c(C=C1CCN(CC3CCOCC3)C1)cn2-c1ccc(F)cc1C(=O)N(C)C(C)C (single isomer, unassigned) [Compound 523a]
36 | 69 nM | 0.341 nM |  | COCC[C@H](C1CCOCC1)N1CC[C@@H](Cc2cn(-c3ccc(F)cc3C(=O)N(C)C(C)C)c3cncc(C)c23)C1 (single isomer, unassigned) [Compound 252a]
37 | 7 nM | 0.036 nM |  | CCC([C@H]1C[C@@H](N2C[C@H]3CN(C(C)=O)C[C@@H]3C2)C1)N1CC[C@@H](Cc2cn(-c3ccc(F)cc3C(=O)N(C)C(C)C)c3cncc(Cl)c23)C1 (some centres unmarked) [Compound 26a]
38 | 16 nM | 0.019 nM |  | Cc1cncc2c1c(CC1CN([C@@H](C(C)C)[C@H]3C[C@@H](N4CCN(S(C)(=O)=O)CC4)C3)C1)cn2-c1ccc(F)cc1C(=O)N(C)C(C)C (single isomer, unassigned) [Compound 34a]
39 |  | ~0.34 nM | 43 nM | CC(=O)N1CCC(N2CC[C@H](Cc3cn(-c4ccc(F)cc4C(=O)N(C)C(C)C)c4cncc(C)c34)C2)C(C)C1 (single isomer, unassigned) [Compound 137b]
40 | 128 nM | 0.065 nM |  | CC(=O)N1C[C@@H]2CN(CCC[C@@H](C(C)C)N3CC[C@H](Cc4cn(-c5ccc(F)cc5C(=O)N(C)C(C)C)c5cncc(Cl)c45)C3)C[C@H]2C1 (single isomer, unassigned) [Compound 19b]
41 | 538 nM | 0.875 nM |  | Cc1cncc2c1c(C[C@H]1CCN(CC3CCOCC3)C1)cn2-c1ccc(F)cc1[S@@](=N)(=O)C(C)C (single isomer, unassigned) [Compound 78d]
42 | 23 nM | 0.03 nM |  | Cc1cncc2c1c(CC1CN([C@@H](C(C)C)[C@H]3C[C@H](N4CCC(S(C)(=O)=O)CC4)C3)C1)cn2-c1ccc(F)cc1C(=O)N(C)C(C)C [Compound 33b]
43 | 716 nM | 0.087 nM |  | Cc1cncc2c1c(C[C@@H]1CCN([C@@H]3CCNC(=O)CC3)C1)cn2-c1ccc(F)cc1C(=O)N(C)C(C)C (single isomer, unassigned) [Compound 139b]
